Experimental data as given in patent US7294739B1, “Basic amine esters or oleic acid and their use as anti-inflammatory or immunobodulatory agents” (Teva Pharmacaetical Industries Ltd., priority 2006, dated 2007).

Tested on: Delayed type hypersensitivity (DTH) skin reaction
Assay: Inhibition of DTH skin reactions (oxazolone-induced mouse ear swelling test)
Format: in vivo, female Balb/c mice
Conditions: for % Inf ((diff/baseline measurement)×100) / % Inhibit ([1−(diff/diff of PBS)]×100) / Diff. (average difference between baseline and post treatment ear measurements): 24 hours after challenge; for effectiveness in the DTH skin reaction model: 5-100 mg/ml
Procedure: Delayed type hypersensitivity (DTH), a localized inflammatory reaction induced by cytokines secreted by TH cells when they encounter certain types of antigens, is an established experimental model for skin inflammation.
DTH reactions were induced in the abdomen skin of 8 week old female Balb/c mice. The mice were sensitized first by topical application of 100 μl of a 5% Oxazolone (4-Ethoxymethylene-2-phenyl-2-oxazolin-5-one; Sigma) solution in ethanol/acetone (3:1, vol/vol) to a shaved abdomen. The mice were anesthetized with ip injection of Ketamine (1 ml)+Xylazine (1 ml)+Saline (8 ml), (0.2 ml per 20 g mouse). Anesthetization was performed before the shaving of the abdomen and the first sensitization.
After 4 days the mice were challenged for the second time using 1% Oxazolone (4-Ethoxymethylene-2-phenyl-2-oxazolin-5-one; Sigma) solution in ethanol/acetone (3:1, vol/vol). The solution was pipetted to the shaved abdomen of the mice.
Six days after the first sensitization, the right ear of each mouse was challenged with a topical application of 20 μl (10 μl on each surface of the ear) of a 1% Oxazolone solution in olive oil/acetone (3:1, vol/vol).
Treatment was given 30 min after challenging by applying 40 μl (20 μl on each surface of the ear) of treatment compounds on the challenged ear of each mouse.
After 24 hours, the extent of inflammation was measured using the mouse ear swelling test (caliper) and the percent inhibition induced by the treatment was quantified.
The experiment includes groups treated with 5, 15, 40, and 100 mg/ml of octadec-(Z)-9-enoic acid 4-dimethylaminomethyl-benzyl ester HCl (1c) and groups treated with 5, 15, 40, and 100 mg/ml of octadec-(Z)-9-enoic acid 4-dimethylaminomethyl-phenyl ester HCl (2d). The experiment also includes dexamethasone (2 mg/mouse) as a positive control, one negative control group (PBS, phosphate buffered saline), and one naïve group. There were 6 mice per group. The researchers who performed the measurements were blinded as to the grouping of each mouse.
In Table 1, “diff” refers to average difference between baseline and post treatment measurements in mm; “% Inf” refers to the (diff/baseline measurement)×100; and, “% Inhibit” refers to [1−(diff/diff of PBS)]×100. Baseline measurements of the ear were conducted before the first sensitization.

[1] = topical on challenged ear, treatment 5 mg/ml (0.2 mg/mouse)
[2] = topical on challenged ear, treatment 15 mg/ml (0.6 mg/mouse)
[3] = topical on challenged ear, treatment 40 mg/ml (1.6 mg/mouse)
[4] = topical on challenged ear, treatment 100 mg/ml (4 mg/mouse)
[5] = positive control, dose 2 mg/mouse

CCCCCCCC/C=C\CCCCCCCC(=O)OCc1ccc(CN(C)C)cc1.Cl [Compound 1c, Octadec-(Z)-9-enoic acid 4-dimethylaminomethyl-benzyl ester HCl]
% Inf ((diff/baseline measurement)×100) [1]: 92.65%
% Inhibit ([1−(diff/diff of PBS)]×100) [1]: 26.74%
Diff. (average difference between baseline and post treatment ear measurements) [1]: 0.20 mm
% Inf ((diff/baseline measurement)×100) [2]: 103.21%
% Inhibit ([1−(diff/diff of PBS)]×100) [2]: 26.01%
Diff. (average difference between baseline and post treatment ear measurements) [2]: 0.20 mm
% Inf ((diff/baseline measurement)×100) [3]: 58.56%
% Inhibit ([1−(diff/diff of PBS)]×100) [3]: 54.82%
Diff. (average difference between baseline and post treatment ear measurements) [3]: 0.12 mm
% Inf ((diff/baseline measurement)×100) [4]: 48.19%
% Inhibit ([1−(diff/diff of PBS)]×100) [4]: 63.37%
Diff. (average difference between baseline and post treatment ear measurements) [4]: 0.10 mm
effectiveness in the DTH skin reaction model (topical): effective

CCCCCCCC/C=C\CCCCCCCC(=O)Oc1ccc(CN(C)C)cc1.Cl [Compound 2d, Octadec-(Z)-9-enoic acid 4-dimethylaminomethyl-phenyl ester HCl]
most effective doses (DTH skin reaction model, topical): 100 mg/mL
% Inf ((diff/baseline measurement)×100) [1]: 113.46%
% Inhibit ([1−(diff/diff of PBS)]×100) [1]: 13.31%
Diff. (average difference between baseline and post treatment ear measurements) [1]: 0.24 mm
% Inf ((diff/baseline measurement)×100) [2]: 107.18%
% Inhibit ([1−(diff/diff of PBS)]×100) [2]: 21.25%
Diff. (average difference between baseline and post treatment ear measurements) [2]: 0.22 mm
% Inf ((diff/baseline measurement)×100) [3]: 114.66%
% Inhibit ([1−(diff/diff of PBS)]×100) [3]: 13.31%
Diff. (average difference between baseline and post treatment ear measurements) [3]: 0.24 mm
% Inf ((diff/baseline measurement)×100) [4]: 55.96%
% Inhibit ([1−(diff/diff of PBS)]×100) [4]: 59.10%
Diff. (average difference between baseline and post treatment ear measurements) [4]: 0.11 mm
effectiveness in the DTH skin reaction model (topical): effective

C[C@@H]1C[C@H]2[C@@H]3CCC4=CC(=O)C=C[C@]4(C)[C@@]3(F)[C@@H](O)C[C@]2(C)[C@@]1(O)C(=O)CO [Positive control, dexamethasone, reference compound]
% Inf ((diff/baseline measurement)×100) [5]: 20.55%
% Inhibit ([1−(diff/diff of PBS)]×100) [5]: 84.74%
Diff. (average difference between baseline and post treatment ear measurements) [5]: 0.04 mm
